Measurements taken from patent US20090099237A1, “Methods of treating inflammatory diseases” (Roche Palo Alto LLC, priority 2007, published 2009).
Where two headings read alike, the source gives them in different places.

Assays:
p38-alpha = p38-alpha (Homo sapiens, UniProt Q16539); test: KinomeScan kinase profiling; type: binding; details: 10 μM
CDK5 = molecular target: T1, CDK5 (Homo sapiens, UniProt Q00535); test: KinomeScan kinase profiling; type: binding; details: 10 μM
T1 construct: purchased Ambit Biosciences (San Diego, Calif.)

p38-beta = p38-beta (Homo sapiens, UniProt Q15759); test: KinomeScan kinase profiling; type: binding; details: 10 μM
DAPK2 = molecular target: T2, DAPK2 (Homo sapiens, UniProt Q9UIK4); test: KinomeScan kinase profiling; type: binding; details: 10 μM
T2 construct: purchased Ambit Biosciences (San Diego, Calif.)

FGR = molecular target: T3, FGR (Homo sapiens, UniProt P09769); test: KinomeScan kinase profiling; type: binding; details: 10 μM
T3 construct: purchased Ambit Biosciences

PHKG2 = PHKG2 (Homo sapiens, UniProt P15735); test: KinomeScan kinase profiling; type: binding; details: 10 μM
Summary of the method: (§1)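 Panel screen of >200 known kinases; compound modulatory activity measured per kinase to define selectivity.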

FLT3 = molecular target: T4, FLT3 (Homo sapiens, UniProt P36888); test: KinomeScan kinase profiling; type: binding; details: 10 μM
T4 construct: purchased Ambit Biosciences
Summary of the method: as §1

YES = molecular target: T5, YES (Homo sapiens, UniProt P07947); test: KinomeScan kinase profiling; type: binding; details: 10 μM
T5 construct: purchased Ambit Biosciences
Summary of the method: as §1

CAMK2A = molecular target: T6, CAMK2A (Homo sapiens, UniProt Q9UQM7); test: KinomeScan kinase profiling; type: binding; details: 10 μM
T6 construct: purchased Ambit Biosciences
Summary of the method: as §1

CK1α = molecular target: T7, CK1α (Homo sapiens, UniProt P48729); test: In vitro kinase assay (33P, peptide substrate); type: biochemical
T7 construct: purchased Invitrogen

EPHB4 = molecular target: T8, EPHB4 (Homo sapiens, UniProt P54760); test: KinomeScan kinase profiling; type: binding; details: 10 μM
T8 construct: purchased Ambit Biosciences (San Diego, Calif.)

JNK2 = molecular target: T9, JNK2 (Homo sapiens, UniProt P45984); test: KinomeScan kinase profiling; type: binding; details: 10 μM
T9 construct: purchased Ambit Biosciences

CK1ε = molecular target: T10, CK1ε (Homo sapiens, UniProt P49674); test: In vitro kinase assay (33P, peptide substrate); type: biochemical
T10 construct: purchased Invitrogen

AURKA = molecular target: T11, AURKA (Homo sapiens, UniProt O14965); test: KinomeScan kinase profiling; type: binding; details: 10 μM
T11 construct: purchased Ambit Biosciences

FYN = molecular target: T12, FYN (Homo sapiens, UniProt P06241); test: KinomeScan kinase profiling; type: binding; details: 10 μM
T12 construct: purchased Ambit Biosciences

FGFR3 = molecular target: T13, FGFR3 (Homo sapiens, UniProt P22607); test: KinomeScan kinase profiling; type: binding; details: 10 μM
T13 construct: purchased Ambit Biosciences

LIMK1 = LIMK1 (Homo sapiens, UniProt P53667); test: KinomeScan kinase profiling; type: binding; details: 10 μM
BRAF = molecular target: T14, BRAF (Homo sapiens, UniProt P15056); test: KinomeScan kinase profiling; type: binding; details: 10 μM
T14 construct: purchased Ambit Biosciences

EPHA3 = molecular target: T15, EPHA3 (Homo sapiens, UniProt P29320); test: KinomeScan kinase profiling; type: binding; details: 10 μM
T15 construct: purchased Ambit Biosciences (San Diego, Calif.)

PKAC-alpha = molecular target: T16, PKAC-alpha (Homo sapiens, UniProt P17612); test: KinomeScan kinase profiling; type: binding; details: 10 μM
T16 construct: purchased Ambit Biosciences

PHKG1 = PHKG1 (Homo sapiens, UniProt Q16816); test: KinomeScan kinase profiling; type: binding; details: 10 μM
KIT = molecular target: T17, KIT (Homo sapiens, UniProt P10721); test: KinomeScan kinase profiling; type: binding; details: 10 μM
T17 construct: purchased Ambit Biosciences

PHKG2, sequence (P15735 whole entry): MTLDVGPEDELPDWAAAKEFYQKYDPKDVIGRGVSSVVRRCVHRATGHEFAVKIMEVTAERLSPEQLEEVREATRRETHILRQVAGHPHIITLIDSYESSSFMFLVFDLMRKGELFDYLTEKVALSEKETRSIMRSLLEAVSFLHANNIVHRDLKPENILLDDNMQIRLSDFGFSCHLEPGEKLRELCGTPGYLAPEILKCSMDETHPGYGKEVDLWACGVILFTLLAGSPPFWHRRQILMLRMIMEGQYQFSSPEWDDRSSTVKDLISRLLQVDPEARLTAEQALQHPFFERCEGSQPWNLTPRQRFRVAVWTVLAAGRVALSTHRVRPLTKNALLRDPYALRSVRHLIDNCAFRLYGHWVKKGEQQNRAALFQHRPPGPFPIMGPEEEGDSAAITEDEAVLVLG
T6 sequence (Q9UQM7 whole entry): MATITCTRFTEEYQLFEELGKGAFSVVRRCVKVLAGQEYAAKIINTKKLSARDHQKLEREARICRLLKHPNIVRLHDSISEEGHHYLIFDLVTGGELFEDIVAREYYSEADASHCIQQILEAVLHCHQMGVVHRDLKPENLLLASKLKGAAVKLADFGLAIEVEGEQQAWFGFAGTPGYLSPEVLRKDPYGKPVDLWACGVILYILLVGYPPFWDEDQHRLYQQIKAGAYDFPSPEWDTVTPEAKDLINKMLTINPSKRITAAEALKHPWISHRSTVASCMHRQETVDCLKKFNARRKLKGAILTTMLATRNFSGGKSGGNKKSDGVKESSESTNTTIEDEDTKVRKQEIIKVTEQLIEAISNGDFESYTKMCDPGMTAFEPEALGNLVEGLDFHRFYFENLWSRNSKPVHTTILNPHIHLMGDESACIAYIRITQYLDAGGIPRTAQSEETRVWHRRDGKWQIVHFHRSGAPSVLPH
T13 sequence (P22607 23-806): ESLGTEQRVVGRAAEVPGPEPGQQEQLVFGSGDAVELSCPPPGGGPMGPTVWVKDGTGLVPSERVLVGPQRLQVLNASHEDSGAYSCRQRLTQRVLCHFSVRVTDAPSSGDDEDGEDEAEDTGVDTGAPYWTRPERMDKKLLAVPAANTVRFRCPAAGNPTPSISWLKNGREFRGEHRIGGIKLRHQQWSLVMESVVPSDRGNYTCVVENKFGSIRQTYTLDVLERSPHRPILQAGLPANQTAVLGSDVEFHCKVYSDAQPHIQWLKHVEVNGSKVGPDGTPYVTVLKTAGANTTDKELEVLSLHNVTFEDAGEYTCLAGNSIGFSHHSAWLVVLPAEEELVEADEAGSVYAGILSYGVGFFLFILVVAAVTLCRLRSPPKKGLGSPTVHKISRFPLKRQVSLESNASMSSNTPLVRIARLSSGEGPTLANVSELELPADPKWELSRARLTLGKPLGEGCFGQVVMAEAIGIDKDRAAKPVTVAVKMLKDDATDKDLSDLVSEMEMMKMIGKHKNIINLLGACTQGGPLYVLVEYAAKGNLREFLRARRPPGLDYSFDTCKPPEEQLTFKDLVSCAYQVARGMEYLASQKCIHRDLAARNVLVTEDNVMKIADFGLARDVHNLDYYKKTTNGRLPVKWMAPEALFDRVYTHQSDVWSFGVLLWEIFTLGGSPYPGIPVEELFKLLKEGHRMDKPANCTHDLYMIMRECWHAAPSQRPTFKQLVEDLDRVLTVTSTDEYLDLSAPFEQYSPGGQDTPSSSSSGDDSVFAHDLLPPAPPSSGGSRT
T2 sequence (Q9UIK4 whole entry): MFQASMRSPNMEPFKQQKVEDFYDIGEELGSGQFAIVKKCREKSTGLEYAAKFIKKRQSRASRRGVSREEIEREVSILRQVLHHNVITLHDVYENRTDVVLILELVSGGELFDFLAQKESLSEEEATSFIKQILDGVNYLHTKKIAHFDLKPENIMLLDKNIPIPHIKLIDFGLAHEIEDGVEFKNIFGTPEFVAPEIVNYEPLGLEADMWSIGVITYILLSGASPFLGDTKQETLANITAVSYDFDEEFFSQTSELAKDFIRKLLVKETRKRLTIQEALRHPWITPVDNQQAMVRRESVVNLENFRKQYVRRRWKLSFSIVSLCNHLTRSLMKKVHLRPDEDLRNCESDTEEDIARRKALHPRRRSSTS
T12 sequence (P06241 whole entry): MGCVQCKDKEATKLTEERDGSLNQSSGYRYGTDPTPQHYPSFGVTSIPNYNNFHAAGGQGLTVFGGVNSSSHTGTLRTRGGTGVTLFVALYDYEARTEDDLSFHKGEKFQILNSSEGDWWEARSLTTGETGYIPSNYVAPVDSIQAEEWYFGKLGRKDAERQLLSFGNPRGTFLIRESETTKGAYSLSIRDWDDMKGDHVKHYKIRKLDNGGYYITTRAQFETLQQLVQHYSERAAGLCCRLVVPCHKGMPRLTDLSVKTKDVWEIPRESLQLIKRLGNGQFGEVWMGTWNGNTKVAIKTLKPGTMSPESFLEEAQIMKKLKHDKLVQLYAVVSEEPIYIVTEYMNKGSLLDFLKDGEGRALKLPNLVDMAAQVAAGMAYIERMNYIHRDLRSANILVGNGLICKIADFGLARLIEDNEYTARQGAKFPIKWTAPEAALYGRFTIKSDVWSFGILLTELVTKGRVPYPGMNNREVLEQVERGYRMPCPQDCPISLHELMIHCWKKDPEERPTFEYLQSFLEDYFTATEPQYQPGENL
T3 sequence (P09769 whole entry): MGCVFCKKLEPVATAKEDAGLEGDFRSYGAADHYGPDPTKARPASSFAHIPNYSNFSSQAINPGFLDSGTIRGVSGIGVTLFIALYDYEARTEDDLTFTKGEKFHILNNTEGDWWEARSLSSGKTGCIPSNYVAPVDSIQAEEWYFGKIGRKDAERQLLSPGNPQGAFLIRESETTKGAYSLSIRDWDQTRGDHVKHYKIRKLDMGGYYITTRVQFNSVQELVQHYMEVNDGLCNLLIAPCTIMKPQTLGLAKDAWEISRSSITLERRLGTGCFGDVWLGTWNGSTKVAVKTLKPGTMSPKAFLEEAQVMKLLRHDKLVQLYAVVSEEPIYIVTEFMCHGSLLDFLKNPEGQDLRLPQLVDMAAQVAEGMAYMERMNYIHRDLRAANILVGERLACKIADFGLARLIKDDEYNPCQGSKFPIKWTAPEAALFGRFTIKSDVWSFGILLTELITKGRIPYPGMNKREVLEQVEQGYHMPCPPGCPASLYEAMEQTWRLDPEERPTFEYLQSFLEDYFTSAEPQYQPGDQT
T10 sequence (P49674 whole entry): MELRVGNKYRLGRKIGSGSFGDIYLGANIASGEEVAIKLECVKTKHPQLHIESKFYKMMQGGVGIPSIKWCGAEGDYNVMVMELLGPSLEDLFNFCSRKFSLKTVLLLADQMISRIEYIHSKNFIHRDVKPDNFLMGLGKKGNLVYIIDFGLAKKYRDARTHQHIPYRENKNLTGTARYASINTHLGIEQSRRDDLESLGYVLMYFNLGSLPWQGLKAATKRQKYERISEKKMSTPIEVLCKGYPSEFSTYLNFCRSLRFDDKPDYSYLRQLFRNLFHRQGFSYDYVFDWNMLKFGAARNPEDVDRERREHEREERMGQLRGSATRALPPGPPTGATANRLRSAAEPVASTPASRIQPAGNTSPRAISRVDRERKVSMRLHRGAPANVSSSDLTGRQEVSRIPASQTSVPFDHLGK
T14 sequence (P15056 whole entry): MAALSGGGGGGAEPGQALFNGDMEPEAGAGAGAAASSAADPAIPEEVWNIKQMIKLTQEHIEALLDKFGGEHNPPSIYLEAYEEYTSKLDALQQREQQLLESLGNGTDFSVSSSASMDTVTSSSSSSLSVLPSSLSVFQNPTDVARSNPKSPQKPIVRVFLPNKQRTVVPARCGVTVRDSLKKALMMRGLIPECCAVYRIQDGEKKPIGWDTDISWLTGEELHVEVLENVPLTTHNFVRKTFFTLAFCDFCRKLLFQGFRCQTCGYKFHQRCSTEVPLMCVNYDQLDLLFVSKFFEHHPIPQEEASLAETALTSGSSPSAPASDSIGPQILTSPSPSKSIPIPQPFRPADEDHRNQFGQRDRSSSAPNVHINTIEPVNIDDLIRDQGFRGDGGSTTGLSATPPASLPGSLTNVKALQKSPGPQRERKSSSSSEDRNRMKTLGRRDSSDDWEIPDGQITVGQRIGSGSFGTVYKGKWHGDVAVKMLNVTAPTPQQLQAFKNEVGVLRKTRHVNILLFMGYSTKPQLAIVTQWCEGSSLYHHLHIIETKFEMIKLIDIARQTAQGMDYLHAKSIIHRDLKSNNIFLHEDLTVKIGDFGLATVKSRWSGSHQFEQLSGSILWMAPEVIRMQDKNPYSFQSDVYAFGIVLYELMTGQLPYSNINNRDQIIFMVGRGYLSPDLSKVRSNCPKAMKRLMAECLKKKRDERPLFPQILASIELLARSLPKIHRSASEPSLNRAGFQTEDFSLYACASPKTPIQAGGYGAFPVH
LIMK1, sequence (P53667 whole entry): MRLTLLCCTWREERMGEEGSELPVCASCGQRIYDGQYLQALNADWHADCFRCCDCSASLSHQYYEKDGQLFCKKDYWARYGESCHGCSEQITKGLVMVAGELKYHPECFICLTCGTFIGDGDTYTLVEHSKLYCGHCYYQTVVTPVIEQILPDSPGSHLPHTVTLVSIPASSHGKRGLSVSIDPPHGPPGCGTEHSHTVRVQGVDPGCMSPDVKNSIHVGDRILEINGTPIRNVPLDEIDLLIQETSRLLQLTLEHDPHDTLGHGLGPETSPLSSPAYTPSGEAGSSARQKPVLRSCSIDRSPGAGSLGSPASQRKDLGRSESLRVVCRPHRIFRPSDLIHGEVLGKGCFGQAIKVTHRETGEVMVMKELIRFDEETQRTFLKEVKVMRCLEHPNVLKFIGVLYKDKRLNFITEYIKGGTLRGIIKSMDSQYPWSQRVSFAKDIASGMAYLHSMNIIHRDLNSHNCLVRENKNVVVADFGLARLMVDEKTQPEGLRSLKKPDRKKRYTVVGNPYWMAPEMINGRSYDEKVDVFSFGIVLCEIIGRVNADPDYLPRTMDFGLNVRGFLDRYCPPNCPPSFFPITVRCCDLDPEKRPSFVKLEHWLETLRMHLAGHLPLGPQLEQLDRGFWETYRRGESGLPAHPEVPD

Row | Structure (SMILES) | % Binding (p38-alpha) | % Binding (CDK5) | % Binding (p38-beta) | % Binding (DAPK2) | % Binding (FGR) | % Binding (PHKG2) | % Binding (FLT3) | % Binding (YES) | % Binding (CAMK2A) | % Binding (EPHB4) | % Binding (JNK2) | % Binding (AURKA) | % Binding (FYN) | % Binding (FGFR3) | % Binding (LIMK1) | % Binding (BRAF) | % Binding (EPHA3) | % Binding (PKAC-alpha) | % Binding (PHKG1) | % Binding (KIT) | further results
1 | NC(=O)c1cc(-c2ccncc2)c[nH]1 [Compound A, 4-Pyridin-4-yl-1H-pyrrole-2-carboxylic acid amide] | <50% | <50% | <50% | <50% | <50% | <50% | <50% | <50% | <50% | <50% | <50% | <50% | <50% | <50% | <50% | <50% | <50% | <50% | <50% | <50% | IC50 (CK1α; CK1α, 50 μM ATP, read-out: IC50): 1.2 µM; IC50 (CK1ε; CK1ε, 50 μM ATP, read-out: IC50): 17.3 µM
2 | COc1cc(OC)c(C=C2C(O)=Nc3ccccc32)c(OC)c1 [IC261, 3-[(2,4,6-trimethoxyphenyl)methylidenyl]-indolin-2-one] | <50% | <50% | <50% | <50% | <50% | <50% | <50% | <50% | <50% | <50% | <50% | <50% | <50% | <50% | <50% | <50% | <50% | <50% | <50% | <50% | IC50 (CK1α): 6.21 µM; IC50 (CK1ε): 5.97 µM
